Measured values: US12351596B2 (priority 2019, dated 2025)
Entries after “also recorded” stand apart in the source; their conditions may differ.

System: antibodies present in serum samples from melioidosis patients
Format: binding, human

Compound | ability to detect antibodies present in serum samples from melioidosis patients | ability to detect the antibodies compared with other antigens
CO[C@H]1[C@@H](OC(C)=O)[C@H](O[C@@H]2[C@@H](O)[C@H](O[C@@H]3[C@H](O)[C@H](C)O[C@@H](O[C@@H]4[C@@H](O)[C@H](OCCCCCN)O[C@H](CO)[C@H]4O)[C@@H]3OC(C)=O)O[C@H](CO)[C@H]2O)O[C@@H](C)[C@H]1OC(C)=O.Cl [tetrasaccharide 8, (5-Amino-1-pentyl) 2,4-di-O-acetyl-6-deoxy-3-O-methyl-α-L-talopyranosyl-(1→3)-β-D-glucopyranosyl-(1→3)-2-O-acetyl-6-deoxy-α-L-talopyranosyl-(1→3)-β-D-glucopyranoside hydrochloride] | exquisite mimics of the whole Bp and Bm LPS OAgs; also recorded: able to detect antibodies present in serum samples from melioidosis patients | –
(5-Amino-1-pentyl) 2-O-acetyl-6-deoxy-3-O-methyl-α-L-talopyranosyl-(1→3)-β-D-glucopyranosyl-(1→3)-2-O-acetyl-6-deoxy-α-L-talopyranosyl-(1→3)-δ-D-glucopyranoside hydrochloride [tetrasaccharide 9] | exquisite mimics of the whole Bp and Bm LPS OAgs; also recorded: able to detect antibodies present in serum samples from melioidosis patients | as effective as tetrasaccharide 8
